Measurements taken from ChEMBL document CHEMBL3272028, “Some substituted naphthazarins as potential anticancer agents” (1976).
Activity calls are given as the source filed them. The rule behind the calls is not given here.

Assays:
[1] = Growth inhibition of human 9KB cells at 1.8 ug/ml relative to control; type: functional; conditions: read-out: GI
[2] = test system: P388; test: Antitumor activity against mouse P388 cells allografted in mouse; type: functional, cell-based
[3] = test system: L1210; test: Antitumor activity against mouse L1210 cells allografted in mouse; type: functional, cell-based
[4] = test system: P388; test: Antitumor activity against mouse P388 cells allografted in mouse at 400 mg/kg relative to control; type: functional
[5] = test system: P388; test: Antitumor activity against mouse P388 cells allografted in mouse at 50 mg/kg relative to control; type: functional

SMILES	inhibition of growth at 1.8 µg/mL [1]	Activity [2]	Activity [3]	T/C [4]	T/C [5]
CC(=O)Oc1ccc(OC(C)=O)c2c1C(=O)C=CC2=O	50%	inactive	inactive	–	–
CC(=O)Oc1ccc(OC(C)=O)c2c1CC(C)=C(C)C2	–	–	inactive	126	–
CC1=C(C)C(=O)c2c(OC(=O)c3ccccc3)ccc(OC(=O)c3ccccc3)c2C1=O	–	–	inactive	–	128
